Test results as given in patent US20230338316A1, “ABBAPOLINS AS INHIBITORS AND DEGRADERS OF POLO-LIKE KINASES” (UNIVERSITY OF SOUTH CAROLINA, priority 2022, published 2023).

Columns and labels:
[1] = test system: MOLT-4; test: Single dose cell viability assay, MOLT-4; format: cell-based; settings: MOLT-4 (Leukemia), single dose 25 μM
Procedure: (§1) Lead abbapolin compounds were tested in multiple cancer cell lines, including non-small cell lung cancer (NSCLC) cells, melanoma cells, colon cancer cells, central nervous system (CNS) cancer cells, prostate cancer cells, renal cancer cells, and breast cancer cells. Each of these cancer cells lines were sensitive to the lead abbapolin compounds in a cell viability assay, including 6184 (Table 3), 6277 (Table 4), 6279 (Table 5), 6355 (Table 6), 6359 (Table 7), 6369 (Table 8), and 6421 (Table 9).

[2] = test system: RPMI-8226; test: Single dose cell viability assay, RPMI-8226; format: cell-based; settings: RPMI-8226 (Leukemia), single dose 25 μM
Procedure: as §1

[3] = test system: CCRF-CEM; test: Single dose cell viability assay, CCRF-CEM; format: cell-based; settings: CCRF-CEM (Leukemia), single dose 25 μM
Procedure: as §1

[4] = test system: K-562; test: Single dose cell viability assay, K-562; format: cell-based; settings: K-562 (Leukemia), single dose 25 μM
Procedure: as §1

[5] = test system: NCI-H522; test: Single dose cell viability assay, NCI-H522; format: cell-based; settings: NCI-H522 (NSCLC), single dose 25 μM
Procedure: as §1

[6] = test system: SK-MEL-2; test: Single dose cell viability assay, SK-MEL-2; format: cell-based; settings: SK-MEL-2 (Melanoma), single dose 25 μM
Procedure: as §1

[7] = test system: MDA-MB-468; test: Single dose cell viability assay, MDA-MB-468; format: cell-based; settings: MDA-MB-468 (Breast), single dose 25 μM
Procedure: as §1

[8] = test system: SK-MEL-5; test: Single dose cell viability assay, SK-MEL-5; format: cell-based; settings: SK-MEL-5 (Melanoma), single dose 25 μM
Procedure: as §1

[9] = test system: UACC-62; test: Single dose cell viability assay, UACC-62; format: cell-based; settings: UACC-62 (Melanoma), single dose 25 μM
Procedure: as §1

[10] = test system: UO-31; test: Single dose cell viability assay, UO-31; format: cell-based; settings: UO-31 (Renal), single dose 25 μM
Procedure: as §1

[11] = test system: HL-60(TB); test: Single dose cell viability assay, HL-60(TB); format: cell-based; settings: HL-60(TB) (Leukemia), single dose 25 μM
Procedure: as §1

[12] = test system: T-47D; test: Single dose cell viability assay, T-47D; format: cell-based; settings: T-47D (Breast), single dose 25 μM
Procedure: as §1

[13] = test system: MCF7; test: Single dose cell viability assay, MCF7; format: cell-based; settings: MCF7 (Breast), single dose 25 μM
Procedure: as §1

[14] = test system: EKVX; test: Single dose cell viability assay, EKVX; format: cell-based; settings: EKVX (NSCLC), single dose 25 μM
Procedure: as §1

[15] = test system: NCI-H23; test: Single dose cell viability assay, NCI-H23; format: cell-based; settings: NCI-H23 (NSCLC), single dose 25 μM
Procedure: as §1

[16] = test system: NCI-H226; test: Single dose cell viability assay, NCI-H226; format: cell-based; settings: NCI-H226 (NSCLC), single dose 25 μM
Procedure: as §1

[17] = molecular target: T1, PLK1 PBD (367-603) (Homo sapiens, UniProt P53350); test: Fluorescence polarization assay, PLK1 PBD; format: binding; settings: fluorescence polarization; read-out: PLK1 PBD IC50
T1 construct: PLK1 PBD (367-603) and PLK3 PBD (335-646) proteins were obtained from BPS Biosciences Inc; purchased BPS Biosciences Inc. (San Diego, CA)
T1 sequence (P53350 367-603): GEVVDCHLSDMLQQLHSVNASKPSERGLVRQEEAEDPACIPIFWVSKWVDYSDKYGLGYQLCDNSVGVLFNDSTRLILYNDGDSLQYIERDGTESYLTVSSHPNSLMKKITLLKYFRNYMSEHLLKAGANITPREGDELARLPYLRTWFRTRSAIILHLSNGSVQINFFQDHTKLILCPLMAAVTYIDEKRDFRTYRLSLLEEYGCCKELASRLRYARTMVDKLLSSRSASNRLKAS
Procedure: Materials were dissolved in DMSO (10 mM) and diluted from 10 nM to 600 μM (maximum of 6% DMSO tolerance in the assay). PLK1 PBD (367-603) and PLK3 PBD (335-646) proteins were obtained from BPS Biosciences Inc. (San Diego, CA); 17 ng PLK1 and 156 ng PLK3 were used per reaction. The fluorescein-tracer phospho-peptides (MAGPMQS[pT]PLNGAKK (SEQ ID NO: 1) for PLK1, and GPLATS[pT]PKNG (SEQ ID NO: 2) for PLK3) were used at a final concentration of 10 nM. Incubation was carried out at room temperature for 45 minutes. Fluorescence was measured using a DTX 880 plate reader and Multimode Analysis software (Beckman Coulter, Brea, CA). The polarization values in millipolarization (mP) units were measured at an excitation wavelength of 488 nm and an emission wavelength of 535 nm. Each data point was performed in triplicate for every experiment, and experiments were performed at least three times. An IC50 value for each compound was calculated from linear regression analysis of the plots.

[18] = test system: HOP-92; test: Single dose cell viability assay, HOP-92; format: cell-based; settings: HOP-92 (NSCLC), single dose 25 μM
Procedure: as §1

[19] = test system: HCT-15; test: Single dose cell viability assay, HCT-15; format: cell-based; settings: HCT-15 (Colon), single dose 25 μM
Procedure: as §1

[20] = test system: SNB-19; test: Single dose cell viability assay, SNB-19; format: cell-based; settings: SNB-19 (CNS), single dose 25 μM
Procedure: as §1

[21] = test system: U251; test: Single dose cell viability assay, U251; format: cell-based; settings: U251 (CNS), single dose 25 μM
Procedure: as §1

[22] = test system: KM12; test: Single dose cell viability assay, KM12; format: cell-based; settings: KM12 (Colon), single dose 25 μM
Procedure: as §1

[23] = test system: PC-3; test: Single dose cell viability assay, PC-3; format: cell-based; settings: PC-3 (Prostate), single dose 25 μM
Procedure: as §1

[24] = test system: SF-295; test: Single dose cell viability assay, SF-295; format: cell-based; settings: SF-295 (CNS), single dose 25 μM
Procedure: as §1

[25] = test system: ACHN; test: Single dose cell viability assay, ACHN; format: cell-based; settings: ACHN (Renal), single dose 25 μM
Procedure: as §1

CCCCCCCCc1ccc(C(=O)Nc2ccccc2O)cc1 [compound 6421]
Cells Remaining (%) [1]: 58.2% | Cells Remaining (%) [2]: 48.98% | Cells Remaining (%) [3]: 37.43% | Cells Remaining (%) [4]: 53.71% | Cells Remaining (%) [5]: 70.52% | Cells Remaining (%) [6]: 38.46% | Cells Remaining (%) [7]: 45.03% | Cells Remaining (%) [8]: 70.42% | Cells Remaining (%) [9]: 69.99% | Cells Remaining (%) [10]: 59.4% | Cells Remaining (%) [11]: 69.66% | Cells Remaining (%) [12]: 27.32% | Cells Remaining (%) [13]: 35.21% | Cells Remaining (%) [14]: 52.89% | Cells Remaining (%) [15]: 62.07% | Cells Remaining (%) [16]: 66.21%

CCCCCCCCc1ccc(C(=O)Nc2ccc(C)cc2C(=O)O)cc1O [compound 6279]
IC50 [17]: 31.8 µM | Cells Remaining (%) [18]: 57.85% | Cells Remaining (%) [19]: 56.83% | Cells Remaining (%) [2]: 63.91% | Cells Remaining (%) [3]: 55.59% | Cells Remaining (%) [4]: 49.7% | Cells Remaining (%) [20]: 43.49% | Cells Remaining (%) [21]: 45.14% | Cells Remaining (%) [22]: 52.19% | Cells Remaining (%) [23]: 58.63% | Cells Remaining (%) [24]: 59.38% | Cells Remaining (%) [5]: 59.89% | Cells Remaining (%) [25]: 61.79%
